{"source": "ChEMBL document CHEMBL5523751", "about": "“Discovery of Novel Diaryl-Substituted Fused Heterocycles Targeting Katanin and Tubulin with Potent Antitumor and Antimultidrug Resistance Efficacy” (J Med Chem, 2024)", "key": {"[1]": {"assay": "MRT (0 to infinity) in mouse at 3 mg/kg, iv measured upto 24 hrs by LC-MS/MS analysis", "assay_type": "ADME, organism-based", "details": "in vivo"}, "[2]": {"assay": "Acute toxicity in ICR mouse assessed as survival rate at 50 mg/kg, ip measured after 14 days relative to control", "assay_type": "organism-based", "details": "in vivo, time 14 day"}, "[3]": {"assay": "Toxicity in Balb/C nude mouse xenografted with A549/Taxol assessed as adverse effect at 15 mg/kg, ip measured after 14 days", "assay_type": "organism-based, A549/TR", "details": "in vivo, 336 h, time 14 day"}, "MCF7 [4]": {"system": "MCF7", "assay": "Upregulation of CDK1 expression level in human MCF7 cells at 1 to 10 nM by Western blot analysis", "assay_type": "functional, cell-based", "details": "dose 1-10 nM"}, "[5]": {"assay": "Resistance index, ratio of IC50 for antiproliferative activity against human CDDP-resistant A549 cell to IC50 for antiproliferative activity against human A549 cells", "assay_type": "functional"}, "[6]": {"assay": "Resistance index, ratio of IC50 for antiproliferative activity against cisplatin resistant human A2780/CDDP cells to IC50 for antiproliferative activity against human A2780 cells", "assay_type": "functional"}, "Sus scrofa": {"species_on_record": "Sus scrofa", "assay": "(§1) Inhibition of porcine brain tubulin polymerization", "details": "dose 0.4-12 µM"}, "[7]": {"assay": "as §1", "design": "species or system Sus scrofa"}, "[8]": {"assay": "Half life in mouse at 15 mg/kg, po measured upto 24 hrs by LC-MS/MS analysis", "assay_type": "ADME, organism-based", "details": "in vivo"}, "MCF7 [9]": {"system": "MCF7", "assay": "Induction of apoptosis in human MCF7 cells assessed as late apoptotic cells at 10 nM measured after 48 hrs by annexin-FITC and propidium iodide staining based flow cytometry analysis (reference value: 3.93%)", "assay_type": "functional"}, "MCF7 [10]": {"system": "MCF7", "assay": "Induction of apoptosis in human MCF7 cells assessed as early apoptotic cells at 40 nM measured after 48 hrs by annexin-FITC and propidium iodide staining based flow cytometry analysis (reference value: 1.20%)", "assay_type": "functional"}, "MCF7 [11]": {"system": "MCF7", "assay": "Induction of apoptosis in human MCF7 cells assessed as upregulation of PARP-1 protein level by Western blot analysis", "assay_type": "functional, cell-based", "details": "dose 10-40 nM"}, "HeLa": {"system": "HeLa", "assay": "Antiproliferative activity against human HeLa assessed as inhibition of cell growth measured after 48 hrs by MTT assay", "assay_type": "functional, cell-based"}, "[12]": {"assay": "Toxicity in Balb/C nude mouse xenografted with A549/Taxol assessed as changes in blood routine parameters at 15 mg/kg, ip measured after 14 days by biochemical assay", "assay_type": "organism-based, A549/TR", "details": "in vivo, 336 h, time 14 day"}, "[13]": {"assay": "Toxicity in Balb/C nude mouse assessed as abnormalities in spleen at 7.5 to 15 mg/kg, ip measured after 14 days by H and E staining based analysis", "assay_type": "organism-based", "details": "in vivo, 336 h, dose 7.5-15 mg/kg, time 14 day"}, "[14]": {"assay": "Toxicity in Balb/C nude mouse assessed as abnormalities in heart at 7.5 to 15 mg/kg, ip measured after 14 days by H and E staining based analysis", "assay_type": "organism-based", "details": "in vivo, 336 h, dose 7.5-15 mg/kg, time 14 day"}, "MCF7 [15]": {"system": "MCF7", "assay": "Antiproliferative activity against human MCF7 cells assessed as inhibition of cell growth measured after 48 hrs by MTT assay", "assay_type": "functional, cell-based", "details": "MCF7, 48 h"}, "MCF7 [16]": {"system": "MCF7", "assay": "Induction of apoptosis in human MCF7 cells assessed as viable cells at 40 nM measured after 48 hrs by annexin-FITC and propidium iodide staining based flow cytometry analysis (reference value: 94.69%)", "assay_type": "functional", "details": "read-out: Activity"}, "[17]": {"assay": "Toxicity in Balb/C nude mouse xenografted with A549/Taxol assessed as effect on heart at 15 mg/kg, ip measured after 14 days by H and E staining based analysis", "assay_type": "organism-based, A549/TR", "details": "in vivo, 336 h, time 14 day"}, "[18]": {"assay": "Toxicity in ICR mouse assessed as lethal dose administered as IP dose measured upto 14 days", "details": "in vivo, time < 14 day"}, "[19]": {"assay": "Cmax in mouse at 15 mg/kg, po measured upto 24 hrs by LC-MS/MS analysis", "assay_type": "ADME, organism-based", "details": "in vivo"}, "[20]": {"assay": "Toxicity in Balb/C nude mouse assessed as abnormalities in liver at 7.5 to 15 mg/kg, ip measured after 14 days by H and E staining based analysis", "assay_type": "organism-based", "details": "in vivo, 336 h, dose 7.5-15 mg/kg, time 14 day"}, "MCF7 [21]": {"system": "MCF7", "assay": "Induction of apoptosis in human MCF7 cells assessed as late apoptotic cells at 40 nM measured after 48 hrs by annexin-FITC and propidium iodide staining based flow cytometry analysis (reference value: 3.93%)", "assay_type": "functional"}, "MCF7 [22]": {"system": "MCF7", "assay": "Induction of apoptosis in human MCF7 cells assessed as necrotic cells at 10 nM measured after 48 hrs by annexin-FITC and propidium iodide staining based flow cytometry analysis (reference value: 0.18%)", "assay_type": "functional"}, "[23]": {"assay": "Toxicity in Balb/C nude mouse xenografted with A549/Taxol assessed as effect on white blood cells count at 15 mg/kg, ip measured after 14 days by biochemical assay", "assay_type": "organism-based, A549/TR", "details": "in vivo, 336 h, time 14 day"}, "[24]": {"assay": "MRT (0 to t) in mouse at 15 mg/kg, po measured upto 24 hrs by LC-MS/MS analysis", "assay_type": "ADME, organism-based", "details": "in vivo"}, "[25]": {"assay": "Oral bioavailability in mouse at 15 mg/kg measured upto 24 hrs by LC-MS/MS analysis", "assay_type": "ADME, organism-based", "details": "in vivo"}, "A2780": {"system": "A2780", "assay": "Antiproliferative activity against human A2780 cells assessed as inhibition of cell growth measured after 48 hrs by MTT assay", "assay_type": "functional, cell-based", "details": "A2780, 48 h"}, "MCF7 [26]": {"system": "MCF7", "assay": "Induction of apoptosis in human MCF7 cells assessed as early apoptotic cells at 10 nM measured after 48 hrs by annexin-FITC and propidium iodide staining based flow cytometry analysis (reference value: 1.20%)", "assay_type": "functional"}, "[27]": {"biological_target": "Katanin p60 ATPase-containing subunit A1 (Homo sapiens, UniProt O75449)", "sequence (O75449 whole entry, the tested form may be a part)": "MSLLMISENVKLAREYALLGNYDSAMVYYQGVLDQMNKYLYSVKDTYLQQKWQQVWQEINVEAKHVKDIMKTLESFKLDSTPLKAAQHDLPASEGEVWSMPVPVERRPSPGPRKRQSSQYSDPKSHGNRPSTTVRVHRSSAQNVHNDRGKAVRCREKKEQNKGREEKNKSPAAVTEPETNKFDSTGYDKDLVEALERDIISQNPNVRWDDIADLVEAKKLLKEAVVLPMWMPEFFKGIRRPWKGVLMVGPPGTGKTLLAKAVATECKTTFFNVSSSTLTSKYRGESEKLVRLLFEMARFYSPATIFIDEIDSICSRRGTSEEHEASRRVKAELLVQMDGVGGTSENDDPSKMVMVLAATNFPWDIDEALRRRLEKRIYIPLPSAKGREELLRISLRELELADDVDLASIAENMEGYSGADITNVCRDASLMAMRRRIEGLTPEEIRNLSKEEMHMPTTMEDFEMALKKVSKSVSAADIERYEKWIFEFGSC", "assay": "Binding affinity to C-terminal human Katanin p60 (111 to 491 residues) expressed in Escherichia coli Rosetta (DE3) assessed as dissociation constant by SPR analysis"}, "[28]": {"assay": "Antiproliferative activity against human CDDP-resistant A549 cell assessed as inhibition of cell growth measured after 48 hrs by MTT assay", "assay_type": "functional, cell-based"}, "[29]": {"assay": "Half life in mouse at 3 mg/kg, iv measured upto 24 hrs by LC-MS/MS analysis", "assay_type": "ADME, organism-based", "details": "in vivo"}, "Tubulin (Homo sapiens)": {"biological_target": "Tubulin (Homo sapiens) (UniProt P68371+Q9H4B7+P0DPH7+P68366+Q13509+Q71U36+P04350+Q3ZCM7+P07437+P68363+Q9BQE3+Q6PEY2+Q13885+Q9BVA1+Q9BUF5)", "assay": "Inhibition of microtubule assembly in human MCF7 cells assessed as appearance of disorganized fibrous microtubule structure at 1 to 10 nM incubated for 24 hrs by immunofluorescence assay", "assay_type": "cell-based", "details": "dose 1-10 nM"}, "[30]": {"assay": "Water solubility of the compound at pH 7.4 by HPLC analysis", "assay_type": "physicochemical"}, "[31]": {"assay": "Toxicity in Balb/C nude mouse xenografted with A549/Taxol assessed as effect on body weight at 15 mg/kg, ip measured after 14 days by H and E staining based analysis", "assay_type": "organism-based, A549/TR", "details": "in vivo, 336 h, time 14 day"}, "[32]": {"assay": "Acute toxicity in ICR mouse assessed as survival rate at 200 mg/kg, ip measured after 14 days relative to control", "assay_type": "organism-based", "details": "in vivo, time 14 day"}, "MCF7 [33]": {"system": "MCF7", "assay": "Antiproliferative activity against katanin knockdown human MCF7 cells assessed as inhibition of cell growth at 0.2 to 25 nM measured after 48 hrs by MTT assay", "assay_type": "functional, cell-based", "details": "dose 0.2-25 nM"}, "A2780/Taxol": {"system": "A2780/Taxol", "assay": "cells", "details": "Homo sapiens, 48 h"}, "MCF7 [34]": {"system": "MCF7", "assay": "Induction of apoptosis in human MCF7 cells assessed as necrotic cells at 20 nM measured after 48 hrs by annexin-FITC and propidium iodide staining based flow cytometry analysis (reference value: 0.18%)", "assay_type": "functional"}, "[35]": {"assay": "AUC (0 to infinity) in mouse at 3 mg/kg, iv measured upto 24 hrs by LC-MS/MS analysis", "assay_type": "ADME, organism-based", "details": "in vivo"}}, "note": "Calls of active or inactive are those of the source. No cut-off for these calls is given here.", "data": [{"smiles": "COc1cc(-n2cnc3ccc(-c4ccc(C)c(N)c4)nc32)cc(OC)c1OC", "values": [{"measurement": "MRT inf", "setting": "[1]", "value": 0.52, "unit": "h"}, {"measurement": "survival at 336 h", "setting": "[2]", "value": 100, "unit": "%"}, {"measurement": "Activity", "setting": "[3]", "value": "Non-Toxic"}, {"measurement": "Activity", "setting": "MCF7 [4]", "value": "Active"}, {"measurement": "Ratio IC50", "setting": "[5]", "value": 1.81}, {"measurement": "Ratio IC50", "setting": "[6]", "value": 1.35}, {"measurement": "inhibition", "setting": "Sus scrofa", "value": "Dose-Dependent Effect"}, {"measurement": "IC50", "setting": "[7]", "value": 2000, "unit": "nM"}, {"measurement": "half-life", "setting": "[8]", "value": 1.92, "unit": "h"}, {"measurement": "Activity", "setting": "MCF7 [9]", "value": 16.7, "unit": "%"}, {"measurement": "Activity", "setting": "MCF7 [10]", "value": 32.55, "unit": "%"}, {"measurement": "Activity", "setting": "MCF7 [11]", "value": "Dose-Dependent Effect"}, {"measurement": "IC50", "setting": "HeLa", "value": 0.9, "unit": "nM"}, {"measurement": "Activity", "setting": "[12]", "value": "Toxic"}, {"measurement": "Activity", "setting": "[13]", "value": "Non-Toxic"}, {"measurement": "Activity", "setting": "[14]", "value": "Non-Toxic"}, {"measurement": "IC50", "setting": "MCF7 [15]", "value": 1, "unit": "nM"}, {"measurement": "viability at 0.04 µM", "setting": "MCF7 [16]", "value": 40.1, "unit": "%"}, {"measurement": "Activity", "setting": "[17]", "value": "Non-Toxic"}, {"measurement": "LD50 at 336 h", "setting": "[18]", "value": 150, "unit": "mg/kg"}, {"measurement": "Cmax", "setting": "[19]", "value": 1200, "unit": "ng/mL"}, {"measurement": "Activity", "setting": "[20]", "value": "Non-Toxic"}, {"measurement": "Activity", "setting": "MCF7 [21]", "value": 27.01, "unit": "%"}, {"measurement": "Activity", "setting": "MCF7 [22]", "value": 0.41, "unit": "%"}, {"measurement": "Activity", "setting": "[23]", "value": "Non-Toxic"}, {"measurement": "MRT last at 24 h", "setting": "[24]", "value": 1.83, "unit": "h"}, {"measurement": "bioavailability", "setting": "[25]", "value": 40, "unit": "%"}, {"measurement": "IC50", "setting": "A2780", "value": 3, "unit": "nM"}, {"measurement": "Activity", "setting": "MCF7 [26]", "value": 29.59, "unit": "%"}, {"measurement": "Kd", "setting": "[27]", "value": "> 50000", "unit": "nM"}, {"measurement": "IC50", "setting": "[28]", "value": 2, "unit": "nM"}, {"measurement": "half-life", "setting": "[29]", "value": 1.06, "unit": "h"}, {"measurement": "inhibition", "setting": "Tubulin (Homo sapiens)", "value": "Active"}, {"measurement": "solubility", "setting": "[30]", "value": 30, "unit": "µg/mL"}, {"measurement": "Activity", "setting": "[31]", "value": "Non-Toxic"}, {"measurement": "survival at 336 h", "setting": "[32]", "value": 40, "unit": "%"}, {"measurement": "Activity", "setting": "MCF7 [33]", "value": "inactive"}, {"measurement": "IC50", "setting": "A2780/Taxol", "value": 4.8, "unit": "nM"}, {"measurement": "Activity", "setting": "MCF7 [34]", "value": 0.62, "unit": "%"}, {"measurement": "AUC(0-inf)", "setting": "[35]", "value": 668, "unit": "ng·h/mL"}]}]}
